Experimental data published in the NIST ThermoML archive (doi:10.1016/j.jct.2006.02.001).

How the values were obtained:
[1] = xn = mol fraction of the nth substance listed; settings: 101 kPa, Liquid
[2] = refractive index (Na D-line) (dimensionless); xn = mol fraction of the nth substance listed; settings: 101 kPa, Liquid

COc1ccccc1 [anisole] + Cc1ccc(C)cc1
Settings | mass density, 288.15 K [kg/m3] | mass density, 293.15 K [kg/m3] | mass density, 298.15 K [kg/m3] | mass density, 303.15 K [kg/m3] | refractive index, 288.15 K | refractive index, 293.15 K | refractive index, 298.15 K | refractive index, 303.15 K
[1], x1 = 0.0994 | 877.53 | 873.32 | 869.02 | 864.71 | – | – | – | –
[1], x1 = 0.2471 | 896.11 | 891.85 | 887.55 | 883.2 | – | – | – | –
[1], x1 = 0.3745 | 912.51 | 908.14 | 903.84 | 899.38 | – | – | – | –
[1], x1 = 0.496 | 928.51 | 924.05 | 919.74 | 915.2 | – | – | – | –
[1], x1 = 0.6455 | 948.69 | 944.15 | 939.83 | 935.26 | – | – | – | –
[1], x1 = 0.7466 | 962.63 | 958.06 | 953.71 | 949.14 | – | – | – | –
[1], x1 = 0.8972 | 983.79 | 979.14 | 974.73 | 970.18 | – | – | – | –
[1], x1 = 0.949 | 991.13 | 986.45 | 981.99 | 977.4 | – | – | – | –
[1], x1 = 0.9772 | 995.17 | 990.43 | 985.95 | 981.34 | – | – | – | –
[1], x1 = 1 | 998.44 | 993.65 | 989.15 | 984.37 | – | – | – | –
[2], x1 = 0.0994 | – | – | – | – | 1.5007 | 1.4978 | 1.4949 | 1.4935
[2], x1 = 0.2471 | – | – | – | – | 1.5044 | 1.5006 | 1.4978 | 1.4963
[2], x1 = 0.3745 | – | – | – | – | 1.5077 | 1.5032 | 1.5004 | 1.4987
[2], x1 = 0.496 | – | – | – | – | 1.5109 | 1.5057 | 1.5029 | 1.5011
[2], x1 = 0.6455 | – | – | – | – | 1.5151 | 1.5089 | 1.5061 | 1.5042
[2], x1 = 0.7466 | – | – | – | – | 1.5179 | 1.5111 | 1.5084 | 1.5064
[2], x1 = 0.8972 | – | – | – | – | 1.5223 | 1.5145 | 1.5118 | 1.5097
[2], x1 = 0.949 | – | – | – | – | 1.5239 | 1.5157 | 1.5129 | 1.5107
[2], x1 = 0.9772 | – | – | – | – | 1.5248 | 1.5164 | 1.5136 | 1.5113
[2], x1 = 1 | – | – | – | – | 1.5256 | 1.5169 | 1.5141 | 1.5117

COc1ccccc1 [anisole] + Cc1cccc(C)c1
Settings | mass density, 288.15 K [kg/m3] | mass density, 293.15 K [kg/m3] | mass density, 298.15 K [kg/m3] | mass density, 303.15 K [kg/m3] | refractive index, 288.15 K | refractive index, 293.15 K | refractive index, 298.15 K | refractive index, 303.15 K
[1], x1 = 0.1006 | 880.54 | 876.26 | 872.02 | 867.67 | – | – | – | –
[1], x1 = 0.2463 | 898.41 | 894.1 | 889.76 | 885.42 | – | – | – | –
[1], x1 = 0.3753 | 914.55 | 910.2 | 905.8 | 901.39 | – | – | – | –
[1], x1 = 0.496 | 930.02 | 925.62 | 921.19 | 916.71 | – | – | – | –
[1], x1 = 0.6398 | 948.95 | 944.45 | 940.02 | 935.48 | – | – | – | –
[1], x1 = 0.7468 | 963.38 | 958.8 | 954.36 | 949.8 | – | – | – | –
[1], x1 = 0.8284 | 974.53 | 969.91 | 965.45 | 960.86 | – | – | – | –
[1], x1 = 0.9034 | 984.93 | 980.26 | 975.77 | 971.13 | – | – | – | –
[1], x1 = 0.9613 | 993.02 | 988.29 | 983.78 | 979.08 | – | – | – | –
[1], x1 = 1 | 998.44 | 993.65 | 989.15 | 984.37 | – | – | – | –
[2], x1 = 0.1006 | – | – | – | – | 1.5021 | 1.4992 | 1.4963 | 1.4944
[2], x1 = 0.2463 | – | – | – | – | 1.5055 | 1.5018 | 1.499 | 1.497
[2], x1 = 0.3753 | – | – | – | – | 1.5086 | 1.5042 | 1.5013 | 1.4993
[2], x1 = 0.496 | – | – | – | – | 1.5117 | 1.5065 | 1.5037 | 1.5016
[2], x1 = 0.6398 | – | – | – | – | 1.5155 | 1.5093 | 1.5065 | 1.5044
[2], x1 = 0.7468 | – | – | – | – | 1.5184 | 1.5115 | 1.5088 | 1.5066
[2], x1 = 0.8284 | – | – | – | – | 1.5206 | 1.5132 | 1.5104 | 1.5082
[2], x1 = 0.9034 | – | – | – | – | 1.5228 | 1.5149 | 1.5121 | 1.5098
[2], x1 = 0.9613 | – | – | – | – | 1.5244 | 1.5161 | 1.5133 | 1.511
[2], x1 = 1 | – | – | – | – | 1.5256 | 1.5169 | 1.5141 | 1.5117

COc1ccccc1 [anisole] + Cc1ccccc1
Settings | mass density, 288.15 K [kg/m3] | mass density, 293.15 K [kg/m3] | mass density, 298.15 K [kg/m3] | mass density, 303.15 K [kg/m3] | refractive index, 288.15 K | refractive index, 293.15 K | refractive index, 298.15 K | refractive index, 303.15 K
[1], x1 = 0.1179 | 887.1 | 882.58 | 877.96 | 873.25 | – | – | – | –
[1], x1 = 0.2098 | 899.23 | 894.67 | 890.04 | 885.33 | – | – | – | –
[1], x1 = 0.3078 | 912.01 | 907.42 | 902.81 | 898.06 | – | – | – | –
[1], x1 = 0.4082 | 924.96 | 920.33 | 915.72 | 910.95 | – | – | – | –
[1], x1 = 0.5157 | 938.67 | 934.03 | 929.43 | 924.67 | – | – | – | –
[1], x1 = 0.6172 | 951.49 | 946.82 | 942.24 | 937.46 | – | – | – | –
[1], x1 = 0.7286 | 965.32 | 960.65 | 956.15 | 951.37 | – | – | – | –
[1], x1 = 0.8575 | 981.16 | 976.45 | 971.96 | 967.26 | – | – | – | –
[1], x1 = 0.917 | 988.36 | 983.65 | 979.17 | 974.46 | – | – | – | –
[1], x1 = 1 | 998.44 | 993.65 | 989.15 | 984.37 | – | – | – | –
[2], x1 = 0.1179 | – | – | – | – | 1.503 | 1.4997 | 1.4971 | 1.4946
[2], x1 = 0.2098 | – | – | – | – | 1.5056 | 1.5017 | 1.4992 | 1.4966
[2], x1 = 0.3078 | – | – | – | – | 1.5083 | 1.5038 | 1.5012 | 1.4987
[2], x1 = 0.4082 | – | – | – | – | 1.511 | 1.5059 | 1.5033 | 1.5008
[2], x1 = 0.5157 | – | – | – | – | 1.5138 | 1.5081 | 1.5054 | 1.5029
[2], x1 = 0.6172 | – | – | – | – | 1.5163 | 1.5099 | 1.5061 | 1.5049
[2], x1 = 0.7286 | – | – | – | – | 1.5192 | 1.5122 | 1.5095 | 1.5071
[2], x1 = 0.8575 | – | – | – | – | 1.5223 | 1.5145 | 1.5118 | 1.5094
[2], x1 = 0.917 | – | – | – | – | 1.5236 | 1.5155 | 1.5135 | 1.5104
[2], x1 = 1 | – | – | – | – | 1.5256 | 1.5169 | 1.5141 | 1.5117
